Tests used:
astrocytes = experiment: H2O2 oxidative damage cell death in astrocytes (LDH method); assay type: cell-based; details: H2O2, after 24 hours
Protocol: For astrocyte culture, first, cerebral cortices (neocortices) were dissociated from murine fetuses (3 weeks old), and the obtained cortical tissue was divided into single cells. […] New cells were cultured and used each time without passaging.
Specifically, cell death caused by oxidative damage was induced by injecting H2O2 into astrocytes, a cell culture model similar to the animal model with a neurodegenerative disease such as Alzheimer's disease or Lou Gehrig's disease was manufactured. To confirm the cell protective effect of amlexanox (AMX) in the cell model manufactured as described above, an untreated H2O2 control and an experimental group produced by administering amlexanox (AMX) into the untreated H2O2 control were prepared, and after 24 hours, cell death was quantitatively assessed by a LDH method.

G93A SOD-1 mice = experiment: Survival rate and motor behaviour in Lou Gehrig's disease animal model; assay type: in vivo, mouse
Description: G93A SOD-1 mice in which a mutant protein of the ALS-related gene SOD-1 (the expression of an amino acid at codon 93, in which glycine is substituted with alanine) of a human were used as Lou Gehrig's disease animal models. The G93A SOD-1 mice were purchased by the Jackson Laboratory (USA).
In the animal models of Lou Gehrig's disease, spinal motor neuron death occurs, causing limb paralysis at one or both sides. The clinical scoring system was differentiated using the following neurological scoring system.
The mice were euthanized at 0 points (Weydt et al. 2003). In the Lou Gehrig's disease animal models, which is one of the neurodegenerative disease models, a vehicle or amlexanox (AMX) was intraperitoneally administered at 2.5 mg/kg once daily for 5 days, and then a survival rate was measured through a behavioral experiment.
The behavioral experiment was performed on each of the AMX-administered group and the control (Veh) once or twice a week before symptoms occur until death. A method of gradually increasing a speed from 4 rpm to 40 rpm and a method of exercising at a constant speed of 15 rpm for 10 minutes were selected. The time to fall off from a rod was recorded to analyze the difference between the AMX-administered group and the control group.
Changes in survival rate were confirmed by intraperitoneal injection into G93A-SOD mice daily at various AMX concentrations.

all PDE isoforms = experiment: HTS using all PDE isoforms as targets; assay type: biochemical
Protocol: Compounds included in the library of 800 FDA-approved drugs were diluted 1/4 from a concentration of 100 μM and dispensed into each well in 96-well plates, and mixed with a PDE reactant to allow a PDE reaction with the drug for 1 hour at a constant temperature.
The experiment was carried out in the same manner as used in screening of the FDA-approved drug library. […] Each of the screening library drugs were diluted 1/4 from 100 μM and dispensed into each well in 96-well plates, and mixed with a PDE reactant, followed by allowing a reaction between the drug and PDE for 1 hour for storage. After a stop solution was mixed with a AMP detection agent, the mixture was dispensed at 20 μl per well to allow a reaction for 10 minutes, followed by immediately measuring luminescence, and the experiment was performed according to a protocol provided by the kit used herein.
The first selection started with PDE3 as a target, and after candidate drugs were selected, all PDE isoforms were tested.

[1] = G93A-SOD mice, AMX at various concentrations, compared with untreated control

## CC(C)c1ccc2oc3nc(N)c(C(=O)O)cc3c(=O)c2c1 [amlexanox, 2-amino-7-isopropyl-5-oxo-5H-[1]benzopyrano[2,3-b] pyridine-3-carboxylic acid]
astrocytes
  cell death: up to 40%
G93A SOD-1 mice; G93A SOD-1 mice, 2.5 mg/kg intraperitoneal once daily 5 days a week from week 10
  survival rate: 130.2 ± 2.0 days
G93A SOD-1 mice; [1]
  onset of ataxia: slower
  progression of ataxia: reduced
G93A SOD-1 mice; G93A-SOD mice, daily intraperitoneal injection at various AMX concentrations, compared with Veh group
  survival rate: concentration-dependently increased
All PDE isoforms
  reducing efficacy for all PDE isoforms: excellent reducing efficacy
